# Experimental data reported in ChEMBL document CHEMBL1201862, “PubChem BioAssay data set” (2004).
#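 A five-concentration, 48-hour dose response in 96-well plates underlies each endpoint, interpolated linearly between surrounding concentrations. At the GI50, growth is halved.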 The source made the active and inactive calls. Rule as the data show it: active = GI50 up to about 1.1 µM and inactive = higher.
# Columns and labels:
# Assay in all cases: NCI-60 cell line screen, 48 h
# RPMI-8226 = system: RPMI-8226
# ACHN = system: ACHN
# SR = system: SR
# KM12 = system: KM12
# NCI-H522 = system: NCI-H522
# SNB-19 = system: SNB-19
# DU-145 = system: DU-145
# RXF 393 = system: RXF 393
# UACC-62 = system: UACC-62
# CAKI-1 = system: CAKI-1
# SF-295 = system: SF-295
# SF-268 = system: SF-268
# Malme-3M = system: Malme-3M
# M14 = system: M14
# A549 = system: A549
# OVCAR-3 = system: OVCAR-3
# BT-549 = system: BT-549
# U-251 = system: U-251
# SK-OV-3 = system: SK-OV-3
# EKVX = system: EKVX
# HT-29 = system: HT-29
# UO-31 = system: UO-31
# SN12C = system: SN12C
# LOX IMVI = system: LOX IMVI
# COLO 205 = system: COLO 205
# NCI/ADR-RES = system: NCI/ADR-RES
# HOP-62 = system: HOP-62
# PC-3 = system: PC-3
# IGROV-1 = system: IGROV-1
# MOLT-4 = system: MOLT-4
# OVCAR-5 = system: OVCAR-5
# UACC-257 = system: UACC-257
# NCI-H226 = system: NCI-H226
# MDA-MB-435 = system: MDA-MB-435
# MDA-MB-231 = system: MDA-MB-231
# SF-539 = system: SF-539
# T47D = system: T47D
# OVCAR-8 = system: OVCAR-8
# Hs-578T = system: Hs-578T
# MCF7 = system: MCF7
# HCT-15 = system: HCT-15
# SW-620 = system: SW-620
# HL-60 = system: HL-60
# HOP-92 = system: HOP-92
# A498 = system: A498
# OVCAR-4 = system: OVCAR-4
# SK-MEL-2 = system: SK-MEL-2
# NCI-H23 = system: NCI-H23
# TK-10 = system: TK-10
# SK-MEL-28 = system: SK-MEL-28
# 786-0 = system: 786-0
# HCT-116 = system: HCT-116
# SK-MEL-5 = system: SK-MEL-5
# K562 = system: K562
# MDA-N = system: MDA-N
# CCRF-CEM = system: CCRF-CEM
# HCC 2998 = system: HCC 2998
# NCI-H460 = system: NCI-H460
# SNB-75 = system: SNB-75
smiles,measurement,setting,value
CN1C(=O)C2(C)SC1(c1ccccc1)C1C(=O)N(c3ccccc3)C(=O)C12 (stereo unspecified),GI50,RPMI-8226,49.8 µM (inactive)
same,GI50,ACHN,91.8 µM (inactive)
same,GI50,SR,64.1 µM (inactive)
same,GI50,KM12,66.1 µM (inactive)
same,GI50,NCI-H522,96.4 µM (inactive)
same,GI50,SNB-19,> 100 µM (inactive)
same,GI50,DU-145,> 100 µM (inactive)
same,GI50,RXF 393,> 100 µM (inactive)
same,GI50,UACC-62,65.3 µM (inactive)
same,GI50,CAKI-1,> 100 µM (inactive)
same,GI50,SF-295,54.6 µM (inactive)
same,GI50,SF-268,> 100 µM (inactive)
same,GI50,Malme-3M,> 100 µM (inactive)
same,GI50,M14,> 100 µM (inactive)
same,GI50,A549,49.8 µM (inactive)
same,GI50,OVCAR-3,> 100 µM (inactive)
same,GI50,BT-549,> 100 µM (inactive)
same,GI50,U-251,67.9 µM (inactive)
same,GI50,SK-OV-3,> 100 µM (inactive)
same,GI50,EKVX,98.9 µM (inactive)
same,GI50,HT-29,76.2 µM (inactive)
same,GI50,UO-31,> 100 µM (inactive)
same,GI50,SN12C,> 100 µM (inactive)
same,GI50,LOX IMVI,> 100 µM (inactive)
same,GI50,COLO 205,67.9 µM (inactive)
same,GI50,NCI/ADR-RES,38.6 µM (inactive)
same,GI50,HOP-62,> 100 µM (inactive)
same,GI50,PC-3,43.4 µM (inactive)
same,GI50,IGROV-1,48 µM (inactive)
same,GI50,MOLT-4,40.9 µM (inactive)
same,GI50,OVCAR-5,> 100 µM (inactive)
same,GI50,UACC-257,26.4 µM (inactive)
same,GI50,NCI-H226,60.4 µM (inactive)
same,GI50,MDA-MB-435,76 µM (inactive)
same,GI50,MDA-MB-231,> 100 µM (inactive)
same,GI50,SF-539,> 100 µM (inactive)
same,GI50,T47D,52.2 µM (inactive)
same,GI50,OVCAR-8,> 100 µM (inactive)
same,GI50,Hs-578T,> 100 µM (inactive)
same,GI50,MCF7,48.5 µM (inactive)
same,GI50,HCT-15,66.4 µM
same,GI50,SW-620,> 100 µM (inactive)
same,GI50,HL-60,47.1 µM (inactive)
same,GI50,HOP-92,36.6 µM (inactive)
same,GI50,A498,49.9 µM (inactive)
same,GI50,OVCAR-4,41.3 µM (inactive)
same,GI50,SK-MEL-2,75 µM (inactive)
same,GI50,NCI-H23,> 100 µM (inactive)
same,GI50,TK-10,57.4 µM (inactive)
same,GI50,SK-MEL-28,> 100 µM (inactive)
same,GI50,786-0,> 100 µM (inactive)
same,GI50,HCT-116,70.8 µM (inactive)
same,GI50,SK-MEL-5,97.7 µM (inactive)
same,GI50,K562,57.4 µM (inactive)
same,GI50,MDA-N,> 100 µM (inactive)
C=CCOc1ccc(C2c3c(n[nH]c3O)CC(C)(O)C2C(=O)OC)cc1OC (stereo unspecified),GI50,CCRF-CEM,> 100 µM (inactive)
same,GI50,RPMI-8226,> 100 µM (inactive)
same,GI50,ACHN,> 100 µM (inactive)
same,GI50,SR,> 100 µM (inactive)
same,GI50,KM12,> 100 µM (inactive)
same,GI50,NCI-H522,> 100 µM (inactive)
same,GI50,SNB-19,> 100 µM (inactive)
same,GI50,DU-145,> 100 µM (inactive)
same,GI50,HCC 2998,> 100 µM (inactive)
same,GI50,UACC-62,> 100 µM (inactive)
same,GI50,CAKI-1,> 100 µM (inactive)
same,GI50,NCI-H460,> 100 µM (inactive)
same,GI50,SF-295,> 100 µM (inactive)
same,GI50,SF-268,> 100 µM (inactive)
same,GI50,Malme-3M,> 100 µM (inactive)
same,GI50,M14,> 100 µM (inactive)
same,GI50,A549,> 100 µM (inactive)
same,GI50,OVCAR-3,> 100 µM (inactive)
same,GI50,BT-549,> 100 µM (inactive)
same,GI50,U-251,> 100 µM (inactive)
same,GI50,EKVX,> 100 µM (inactive)
same,GI50,HT-29,> 100 µM (inactive)
same,GI50,UO-31,> 100 µM (inactive)
same,GI50,SN12C,> 100 µM (inactive)
same,GI50,LOX IMVI,> 100 µM (inactive)
same,GI50,COLO 205,> 100 µM (inactive)
same,GI50,NCI/ADR-RES,> 100 µM (inactive)
same,GI50,HOP-62,> 100 µM (inactive)
same,GI50,PC-3,> 100 µM (inactive)
same,GI50,IGROV-1,> 100 µM (inactive)
same,GI50,MOLT-4,> 100 µM (inactive)
same,GI50,OVCAR-5,> 100 µM (inactive)
same,GI50,UACC-257,> 100 µM (inactive)
same,GI50,MDA-MB-435,> 100 µM (inactive)
same,GI50,MDA-MB-231,> 100 µM (inactive)
same,GI50,SF-539,> 100 µM (inactive)
same,GI50,T47D,> 100 µM (inactive)
same,GI50,OVCAR-8,> 100 µM (inactive)
same,GI50,Hs-578T,> 100 µM (inactive)
same,GI50,MCF7,> 100 µM (inactive)
same,GI50,HCT-15,> 100 µM
same,GI50,SW-620,> 100 µM (inactive)
same,GI50,HL-60,> 100 µM (inactive)
same,GI50,SNB-75,> 100 µM (inactive)
same,GI50,HOP-92,> 100 µM (inactive)
same,GI50,A498,> 100 µM (inactive)
same,GI50,OVCAR-4,> 100 µM (inactive)
same,GI50,SK-MEL-2,> 100 µM (inactive)
same,GI50,NCI-H23,> 100 µM (inactive)
same,GI50,TK-10,> 100 µM (inactive)
same,GI50,SK-MEL-28,> 100 µM (inactive)
same,GI50,786-0,> 100 µM (inactive)
same,GI50,HCT-116,> 100 µM (inactive)
same,GI50,SK-MEL-5,> 100 µM (inactive)
same,GI50,MDA-N,> 100 µM (inactive)
N=C(N)SCCN1CCCCC1,GI50,RPMI-8226,14.1 µM (inactive)
same,GI50,ACHN,25.6 µM (inactive)
same,GI50,SR,21 µM (inactive)
same,GI50,KM12,40.6 µM (inactive)
same,GI50,NCI-H522,7.5 µM (inactive)
same,GI50,DU-145,24.7 µM (inactive)
same,GI50,RXF 393,16.1 µM (inactive)
same,GI50,UACC-62,23.4 µM (inactive)
same,GI50,CAKI-1,26.7 µM (inactive)
same,GI50,NCI-H460,32.7 µM (inactive)
same,GI50,SF-295,> 100 µM (inactive)
same,GI50,SF-268,24.4 µM (inactive)
same,GI50,Malme-3M,12.5 µM (inactive)
same,GI50,M14,19.9 µM (inactive)
same,GI50,A549,56 µM (inactive)
same,GI50,OVCAR-3,22.2 µM (inactive)
same,GI50,BT-549,25.1 µM (inactive)
same,GI50,U-251,19.9 µM (inactive)
same,GI50,SK-OV-3,46.8 µM (inactive)
same,GI50,EKVX,60.3 µM (inactive)
same,GI50,HT-29,29.9 µM (inactive)
same,GI50,UO-31,25.5 µM (inactive)
same,GI50,SN12C,26.3 µM (inactive)
same,GI50,LOX IMVI,20.2 µM (inactive)
same,GI50,COLO 205,> 100 µM (inactive)
same,GI50,NCI/ADR-RES,29.2 µM (inactive)
same,GI50,HOP-62,46.5 µM (inactive)
same,GI50,PC-3,15.9 µM (inactive)
same,GI50,IGROV-1,36.6 µM (inactive)
same,GI50,MOLT-4,20.6 µM (inactive)
same,GI50,OVCAR-5,86.1 µM (inactive)
same,GI50,UACC-257,18.6 µM (inactive)
same,GI50,NCI-H226,21.4 µM (inactive)
same,GI50,MDA-MB-435,19.4 µM (inactive)
same,GI50,MDA-MB-231,22.8 µM (inactive)
same,GI50,SF-539,35.7 µM (inactive)
same,GI50,T47D,27.5 µM (inactive)
same,GI50,OVCAR-8,28.6 µM (inactive)
same,GI50,Hs-578T,11.7 µM (inactive)
same,GI50,MCF7,16.6 µM (inactive)
same,GI50,HCT-15,25.6 µM
same,GI50,SW-620,29.8 µM (inactive)
same,GI50,HL-60,21.2 µM (inactive)
same,GI50,SNB-75,37.4 µM (inactive)
same,GI50,HOP-92,27.9 µM (inactive)
same,GI50,A498,48.6 µM (inactive)
same,GI50,OVCAR-4,31.6 µM (inactive)
same,GI50,SK-MEL-2,2.98 µM (inactive)
same,GI50,NCI-H23,26.1 µM (inactive)
same,GI50,TK-10,43.7 µM (inactive)
same,GI50,SK-MEL-28,28.5 µM (inactive)
same,GI50,786-0,22.3 µM (inactive)
same,GI50,HCT-116,26.7 µM (inactive)
same,GI50,SK-MEL-5,48 µM (inactive)
same,GI50,K562,20 µM (inactive)
same,GI50,MDA-N,30.2 µM (inactive)
